Results taken from US7138361B2, “Herbicidal heterocycles” (E. I. du Pont de Nemours and Company, priority 2000, dated 2006).

Key:
Format in all cases: in vivo
[1] = tested on: yellow nutsedge (Cyperus esculentus); assay: Test C preemergence; conditions: for Plant response rating (0 to 100), Nutsedge: Rate 500 g/ha, visual evaluation after 12 to 14 days
Method in brief: (§1)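 Each compound was dissolved in a non-phytotoxic solvent system containing a surfactant and sprayed either on freshly planted seeds (preemergence) or on young plants, 2 to 18 cm high (postemergence). Ratings after 12 to 14 greenhouse days ran from 0, no effect, to 100, complete control.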

[2] = tested on: Sunflower; assay: Test C preemergence; conditions: Rate 125 g/ha; scale 0 to 100, 0 no effect, 100 complete control
[3] = tested on: bermudagrass (Cynodon dactylon); assay: Test C preemergence; conditions: for Plant response rating (0 to 100 where 0 is no effect and 100 is complete control), Bermudagrass: visual evaluation after 12 to 14 days
Method in brief: as §1

[4] = tested on: velvetleaf (Abutilon theophrasti); assay: Test C preemergence; conditions: for Plant response rating (0 to 100), Velvetleaf: Rate 500 g/ha, visual evaluation after 12 to 14 days
Method in brief: as §1

[5] = tested on: johnsongrass (Sorghum halepense); assay: Test C preemergence; conditions: for Plant response rating (0 to 100), Johnsongrass: visual evaluation after 12 to 14 days
Method in brief: as §1

[6] = tested on: kochia (Kochia scoparia); assay: Test C preemergence; conditions: for Plant response rating (0 to 100), Kochia: visual evaluation after 12 to 14 days
Method in brief: as §1

[7] = tested on: morningglory (Ipomoea hederacea); assay: Test C preemergence; conditions: for Plant response rating (0 to 100), Morningglory: Rate 500 g/ha, visual evaluation after 12 to 14 days
Method in brief: as §1

[8] = tested on: giant foxtail (Setaria faberii); assay: Test C preemergence; conditions: for Plant response rating (0 to 100), Foxtail, Giant: visual evaluation after 12 to 14 days
Method in brief: as §1

[9] = tested on: corn (Zea mays); assay: Test C preemergence; conditions: for Plant response rating (0 to 100), Corn: visual evaluation after 12 to 14 days
Method in brief: as §1

[10] = tested on: crabgrass (Digitaria sanguinalis); assay: Test B postemergence
Method in brief: (§2)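 Ratings on a 0 to 100 visual scale (100 complete control) compare treated plants with controls 13 to 15 days after application. Treatments were pre- or postemergence sprays of compound in non-phytotoxic solvent with surfactant.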

[11] = tested on: blackgrass (Alopecurus myosuroides); assay: Test B postemergence
Method in brief: as §2

[12] = tested on: lambsquarters (Chenopodium album); assay: Test B postemergence
Method in brief: as §2

[13] = tested on: wheat (Triticum aestivum); assay: Test B postemergence
Method in brief: as §2

[14] = tested on: barnyardgrass (Echinochloa crus-galli); assay: Test B postemergence
Method in brief: as §2

[15] = tested on: velvetleaf (Abutilon theophrasti); assay: Test B postemergence
Method in brief: as §2

[16] = tested on: cocklebur (Xanthium strumarium); assay: Test B postemergence
Method in brief: as §2

[17] = tested on: morning glory (Ipomoea hederacea); assay: Test B postemergence
Method in brief: as §2

[18] = tested on: Surinam grass (Brachiaria decumbens); assay: Test B postemergence
Method in brief: as §2

[19] = tested on: wild oat (Avena fatua); assay: Test B postemergence
Method in brief: as §2

[20] = tested on: giant foxtail (Setaria faberii); assay: Test B postemergence
Method in brief: as §2

[21] = tested on: pigweed (Amaranthus retroflexus); assay: Test B postemergence
Method in brief: as §2

[22] = tested on: corn (Zea mays); assay: Test B postemergence
Method in brief: as §2

[23] = tested on: Sunflower; assay: Test C preemergence; conditions: Rate 500 g/ha, visual evaluation after 12 to 14 days
[24] = Rate 62 g/ha, scale 0 to 100, 0 no effect, 100 complete control
[25] = Rate 125 g/ha, scale 0 to 100, 0 no effect, 100 complete control
[26] = preemergence, Rate 250 g/ha, scale 0 to 100, 0 no effect, 100 complete control
[27] = Rate 125 g/ha, scale 0 (no effect) to 100 (complete control), 13 to 15 days
[28] = Rate 500 g/ha, scale 0 to 100, 0 is no effect, 100 is complete control, 13 to 15 days
[29] = preemergence, Rate 62 g/ha, scale 0 to 100

CC(C)Oc1cccc(N2CCC(n3ccc(C(C)C)n3)C2=O)c1 (stereo not drawn) [Compound 82]
Plant response rating, Nutsedge [1, 24]: 0 | Plant response rating, Nutsedge [1, 25]: 0 | Plant response rating (0 to 100), Nutsedge ([1]; preemergence): 40 | Plant response rating, Nutsedge [1, 26]: 10 | Plant response rating, Sunflower [2]: 20 | Plant response rating, Bermudagrass [3, 24]: 100 | Plant response rating, Bermudagrass [3, 25]: 90 | Plant response rating (0 to 100 where 0 is no effect and 100 is complete control), Bermudagrass ([3]; preemergence, Rate 250 g/ha): 100 | Plant response rating (0 to 100 where 0 is no effect and 100 is complete control), Bermudagrass ([3]; preemergence, Rate 500 g/ha): 100 | Plant response rating, Velvetleaf [4, 25]: 10 | Plant response rating (0 to 100), Velvetleaf ([4]; preemergence): 30 | Plant response rating, Velvetleaf [4, 26]: 10 | Plant response rating, Johnsongrass [5, 24]: 40 | Plant response rating, Johnsongrass [5, 25]: 50 | Plant response rating (0 to 100), Johnsongrass ([5]; preemergence, Rate 250 g/ha): 50 | Plant response rating (0 to 100), Johnsongrass ([5]; preemergence, Rate 500 g/ha): 60 | Plant response rating, Kochia [6, 24]: 0 | Plant response rating, Kochia [6, 25]: 90 | Plant response rating (0 to 100), Kochia ([6]; preemergence, Rate 250 g/ha): 100 | Plant response rating (0 to 100), Kochia ([6]; preemergence, Rate 500 g/ha): 100 | Plant response rating, Morningglory [7, 24]: 20 | Plant response rating, Morningglory [7, 25]: 10 | Plant response rating (0 to 100), Morningglory ([7]; preemergence): 80 | Plant response rating, Morningglory [7, 26]: 20 | Plant response rating, Foxtail, Giant [8, 24]: 30 | Plant response rating, Foxtail, Giant [8, 25]: 0 | Plant response rating (0 to 100), Foxtail, Giant ([8]; preemergence, Rate 250 g/ha): 100 | Plant response rating (0 to 100), Foxtail, Giant ([8]; preemergence, Rate 500 g/ha): 100 | Plant response rating, Corn [9, 24]: 0 | Plant response rating, Corn [9, 25]: 20 | Plant response rating (0 to 100), Corn ([9]; preemergence, Rate 250 g/ha): 10 | Plant response rating (0 to 100), Corn ([9]; preemergence, Rate 500 g/ha): 30 | Plant response rating, Crabgrass [10, 27]: 0 | Plant response rating, Crabgrass [10, 28]: 10 | Plant response rating, Blackgrass [11, 27]: 0 | Plant response rating, Blackgrass [11, 28]: 0 | Plant response rating, Lambsquarters [12, 27]: 20 | Plant response rating, Lambsquarters [12, 28]: 70 | Plant response rating, Wheat [13, 27]: 0 | Plant response rating, Wheat [13, 28]: 0 | Plant response rating, Barnyardgrass [14, 27]: 0 | Plant response rating, Barnyardgrass [14, 28]: 0 | Plant response rating, Velvetleaf [15, 27]: 0 | Plant response rating, Velvetleaf [15, 28]: 0 | Plant response rating, Cocklebur [16, 27]: 0 | Plant response rating, Cocklebur [16, 28]: 20 | Plant response rating, Morningglory [17, 27]: 0 | Plant response rating, Morningglory [17, 28]: 10 | Plant response rating, Surinam grass [18, 27]: 0 | Plant response rating, Surinam grass [18, 28]: 0 | Plant response rating, Wild Oat [19, 27]: 0 | Plant response rating, Wild Oat [19, 28]: 0 | Plant response rating, Foxtail, Giant [20, 27]: 0 | Plant response rating, Foxtail, Giant [20, 28]: 0 | Plant response rating, Pigweed [21, 27]: 0 | Plant response rating, Pigweed [21, 28]: 10 | Plant response rating, Corn [22, 27]: 0 | Plant response rating, Corn [22, 28]: 0 | Plant response rating (0 to 100), Sunflower [23]: 80

CCOc1cccc(N2CCC(n3ccc(C(C)C)n3)C2=O)c1 (stereo not drawn) [Compound 128]
Plant response rating, Nutsedge [1, 25]: 70 | Plant response rating, Nutsedge [1, 29]: 20 | Plant response rating (0 to 100), Nutsedge ([1]; preemergence): 100 | Plant response rating, Nutsedge [1, 26]: 100 | Plant response rating, Sunflower [2]: 100 | Plant response rating, Bermudagrass [3, 25]: 100 | Plant response rating, Bermudagrass [3, 29]: 100 | Plant response rating (0 to 100 where 0 is no effect and 100 is complete control), Bermudagrass ([3]; preemergence, Rate 500 g/ha): 100 | Plant response rating, Bermudagrass [3, 26]: 100 | Plant response rating, Velvetleaf [4, 25]: 20 | Plant response rating, Velvetleaf [4, 29]: 10 | Plant response rating (0 to 100), Velvetleaf ([4]; preemergence): 50 | Plant response rating, Velvetleaf [4, 26]: 30 | Plant response rating, Johnsongrass [5, 25]: 90 | Plant response rating, Johnsongrass [5, 29]: 60 | Plant response rating (0 to 100), Johnsongrass ([5]; preemergence, Rate 500 g/ha): 100 | Plant response rating, Johnsongrass [5, 26]: 100 | Plant response rating, Kochia [6, 25]: 100 | Plant response rating, Kochia [6, 29]: 100 | Plant response rating (0 to 100), Kochia ([6]; preemergence, Rate 500 g/ha): 100 | Plant response rating, Kochia [6, 26]: 100 | Plant response rating, Morningglory [7, 25]: 60 | Plant response rating, Morningglory [7, 29]: 30 | Plant response rating (0 to 100), Morningglory ([7]; preemergence): 80 | Plant response rating, Morningglory [7, 26]: 70 | Plant response rating, Foxtail, Giant [8, 25]: 90 | Plant response rating, Foxtail, Giant [8, 29]: 20 | Plant response rating (0 to 100), Foxtail, Giant ([8]; preemergence, Rate 500 g/ha): 100 | Plant response rating, Foxtail, Giant [8, 26]: 90 | Plant response rating, Corn [9, 25]: 20 | Plant response rating, Corn [9, 29]: 0 | Plant response rating (0 to 100), Corn ([9]; preemergence, Rate 500 g/ha): 60 | Plant response rating, Corn [9, 26]: 40 | Plant response rating, Crabgrass [10, 25]: 0 | Plant response rating, Blackgrass [11, 25]: 0 | Plant response rating, Blackgrass [11, 28]: 0 | Plant response rating, Lambsquarters [12, 25]: 0 | Plant response rating, Wheat [13, 25]: 0 | Plant response rating, Barnyardgrass [14, 25]: 0 | Plant response rating, Barnyardgrass [14, 28]: 80 | Plant response rating, Velvetleaf [15, 25]: 0 | Plant response rating, Cocklebur [16, 25]: 0 | Plant response rating, Cocklebur [16, 28]: 50 | Plant response rating, Morningglory [17, 25]: 0 | Plant response rating, Surinam grass [18, 25]: 70 | Plant response rating, Surinam grass [18, 28]: 100 | Plant response rating, Wild Oat [19, 25]: 0 | Plant response rating, Foxtail, Giant [20, 25]: 0 | Plant response rating, Pigweed [21, 25]: 0 | Plant response rating, Corn [22, 25]: 0 | Plant response rating, Corn [22, 28]: 0 | Plant response rating (0 to 100), Sunflower [23]: 100
